Activity calls are given as the source filed them.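 Rule for the calls: active = compounds giving half or more protection of infected cells from virus-caused growth loss, again on retest; inactive = the rest.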 Where a SMILES comes first, the peptide text is derived from it. [ ]: non-standard residue; d: D form. The star is where a group is joined. ξ: configuration not given here. X17 = O=C(OCc1ccccc1)[C@@H]1CCC[C@H]1N*; Fmoc = O=C(OCC1c2ccccc2-c2ccccc21)*; ξW = NC(Cc1c[nH]c2ccccc12)C(=O)O; ξF = NC(Cc1ccccc1)C(=O)O; Boc = CC(C)(C)OC(=O)*; ξK = NCCCCC(N)C(=O)O; ξT = CC(O)C(N)C(=O)O; tBu = CC(C)(C)*
Tested on: CEM cells HIV-1 protection, formazan growth assay
Assay: NCI AIDS Antiviral Assay
Settings: for IC50: measured here: growth of uninfected CEM cells
Method in brief: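 Five concentrations of each compound were applied to infected and uninfected human CEM cells. Protection from HIV-1 was judged from growth measured with a soluble formazan assay.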

SMILES	EC50	IC50	outcome
CC1(C)CC(C#Cc2ccccc2)CC(C)(C)N1O	> 200 µM	34.7 µM	–
COC1(OC)C=NNc2nccn21	> 200 µM	> 200 µM	–
CC(C)(C)OC(=O)C1CCC/C1=N/Nc1ccc([N+](=O)[O-])cc1[N+](=O)[O-] (centres undefined)	> 200 µM	30.2 µM	–
CC(=O)C1(O)CC2(c3ccccc3)C(=O)C1(c1ccccc1)C(c1ccccc1)=C2c1ccccc1 (centres undefined)	–	–	inactive
CC(=O)NS(=O)(=O)c1ccc(N=Cc2cc(Cl)cc(Cl)c2O)cc1	> 200 µM	19.5 µM	–
CCCCCCCCC/C=C/C=C/C(=O)NCC(=O)NC1C(O)C(O)C(Nc2ncnc3nc[nH]c23)OC1C(O)CO (centres undefined)	> 43.7 µM	0.158 µM	–
CC1CCC2C(C(=O)O[C@H]3C4CCO[C@@H](OC5OC(CO)C(O)C(O)C5O)C4[C@@]4(CO)O[C@@H]34)=CO[C@@H](OC3OC(CO)C(O)C(O)C3O)C12 (some centres undefined)	> 200 µM	> 200 µM	–
Cc1cc(NS(=O)(=O)c2ccc(NC(=O)c3cccc4c(Nc5ccc(S(N)(=O)=O)cc5)c5ccccc5nc34)cc2)no1	> 148 µM	> 148 µM	–
CCOC(=O)C(C)(C)Oc1ccc2c(=O)cc(-c3ccccc3)oc2c1	> 53.7 µM	36.3 µM	–
S=c1ncc(-c2cncc(-c3cnc(=S)[nH]c3)n2)c[nH]1	> 200 µM	> 200 µM	–
CC1(C)CNC[C@@](C)(O)C(=O)NC(C)(C)CNC[C@](C)(O)C(=O)N1	186 µM	> 200 µM	–
c1cc2nnc1SCCCSc1ccc(nn1)SCCCSc1ccc(nn1)SCCCS2	> 100 µM	> 100 µM	–
Cc1cccc(NC(=O)/C(=N\NC(C)(C)C)C2NC(=S)NC2=O)c1C (centres undefined)	> 72.4 µM	> 72.4 µM	–
CCN(CC)CCn1ccc(=O)c2cc3c(=O)ccn(CCN(CC)CC)c3c(C)c21	> 17 µM	0.676 µM	–
Nc1ncnc2c1nnn2C1C=CC(CP(=O)(O)O)C1 (centres undefined)	> 200 µM	> 200 µM	–
CC1=CC(=O)C(=C(C)C)CC1	> 200 µM	129 µM	–
C=C(CC)C[C@@H]1C[C@]2(C(=O)OC)c3[nH]c4ccccc4c3CCN2C1=O	> 200 µM	36.3 µM	–
CC(C)(C)OC(=O)NCC(=O)NC1CC=CCC1NC(=O)CNC(=O)OC(C)(C)C (centres undefined)	> 200 µM	> 200 µM	–
CCN1CCC(O)(c2ccc(Cl)cc2)C(C(=O)c2ccc(Cl)cc2)C1 (centres undefined)	–	–	inactive
Nn1c(CCCCCCCCc2nnc(COc3ccc4ccccc4c3O)n2N)nnc1COc1ccc2ccccc2c1O	> 200 µM	2.45 µM	–
O=c1ccs[nH]1	> 676 µM	6.46 µM	–
COC(=O)CC(=O)C=P(c1ccccc1)(c1ccccc1)c1ccccc1	> 347 µM	20.4 µM	–

SMILES	EC50	IC50	outcome
CC(OC(C)(C)C)C(NC(=O)C(CCCCNC(=O)OC(C)(C)C)NC(=O)C(Cc1c[nH]c2ccccc12)NC(=O)C(Cc1ccccc1)NC(=O)OCC1c2ccccc2-c2ccccc21)C(=O)NC(Cc1ccccc1)C(=O)N[C@@H]1CCC[C@H]1C(=O)OCc1ccccc1 (some centres undefined) (Fmoc-[ξF][ξW][ξK](Boc)[ξT](tBu)[ξF]-X17)	–	–	inactive
CP(=O)(CCSc1ccccc1)c1ccccc1 (centres undefined)	> 661 µM	> 661 µM	–
Cc1cc2c(c3ncccc13)OCN(Cc1ccc(Cl)c(Cl)c1)C2	> 100 µM	1.05 µM	–
Cc1cn(CCCCOC(=O)NC(CCCNC(N)=O)C(=O)O)c(=O)[nH]c1=O (centres undefined)	> 200 µM	> 200 µM	–
CN(C)[C@@H]1C(=O)C(C(=O)NCNC(CO)(CO)CO)=C(O)[C@@]2(O)C(=O)C3=C(O)c4c(O)cccc4[C@@](C)(O)[C@H]3C[C@@H]12	> 42.7 µM	33.9 µM	–
CCCc1c(O)nc(Nc2nc3ccccc3[nH]2)[nH]c1=O	> 200 µM	63.1 µM	–
O=C1c2cscc2C(=O)c2c(OCc3ccccc3)ccc(OCc3ccccc3)c21	> 200 µM	4.17 µM	–
COc1ccc(NC(=O)C(=O)Cc2nc3ccc([N+](=O)[O-])cc3[nH]c2=O)c(OC)c1	> 17.4 µM	> 17.4 µM	–
COC(=O)C1(NC(=O)C(CC(=O)OCc2ccccc2)NC(=O)OCc2ccccc2)CCCCCC1 (centres undefined)	> 200 µM	107 µM	–
CSc1ncc2c(C#N)c3sc4ccccc4n3c(=O)c2n1	> 200 µM	> 200 µM	–
CC[N+]1(C)CCC(O)(c2ccc(OC)cc2)C(C(=O)c2ccc(OC)cc2)C1 (centres undefined)	> 200 µM	10.2 µM	–
Cc1nc(C)c(C(=O)NNC(N)=S)cc1C(=O)NNC(N)=S	> 200 µM	> 200 µM	–
NC(Cc1c[nH]c2ccccc12)P(=O)(O)O (centres undefined)	> 200 µM	> 200 µM	–
COC(=O)C([C@H]1CC[C@H](OCc2ccccc2)[C@@]1(O)COCc1ccccc1)C(C)(O)CCc1ccccc1 (some centres undefined)	–	–	inactive
O=S1Cc2nc3ccccc3n2C1c1c(F)cccc1F (centres undefined)	> 117 µM	–	–
CCOc1ccc(N=Nc2c(-c3ccccc3)nn(C(=O)CC(=O)Nc3cccc(C)c3)c2-c2ccccc2)cc1	> 47.9 µM	> 47.9 µM	–
CC(C)(C)c1ccccc1NS(=O)(=O)c1ccccc1	–	–	inactive
CC(=O)Oc1ccc2c(c1)nnn2C(C)=O	> 200 µM	> 200 µM	–
CC1(C2=CCCCC2)CCC(=O)NC1=O (centres undefined)	> 200 µM	> 200 µM	–
CC1CC(c2ccccc2)Nc2nc3ccccc3n21 (centres undefined)	> 151 µM	> 151 µM	–
CCCCc1ccc(-n2sc3ncccc3c2=O)cc1	1.74 µM	8.32 µM	–
CC(C)(C)[Si](C)(C)OC[C@H]1O[C@@H](n2ccc(=O)[nH]c2=O)C(O[Si](C)(C)C(C)(C)C)[C@]12CCN(O)CO2 (some centres undefined)	> 200 µM	11.5 µM	–

SMILES	EC50	IC50	outcome
CCOC(=O)[C@@]12C(C)=CC(=O)O[C@]1(C)C[C@H]2C#N	> 1000 µM	> 1000 µM	–
CSc1cc(=O)[nH]c(=O)[nH]1	> 200 µM	> 200 µM	–
C#CCN(N=O)C(=O)ON1C(=O)CCC1=O	> 1120 µM	537 µM	–
CCN(CC)/[N+]([O-])=N/OCC(C)O (centres undefined)	> 8130 µM	> 8130 µM	–
O=S(=O)(O)C(I)(I)S(=O)(=O)O	> 200 µM	> 200 µM	–
C[C@@H](c1ccccc1)n1c(N)c(-c2ccccn2)c2ccc([N+](=O)[O-])cc2c1=O	> 200 µM	24 µM	–
COC(O)C(=O)c1c2c(cc3c1CCC3)CCCC2 (centres undefined)	> 200 µM	6.17 µM	–
COc1ccc2c(c1)CC1Cc3ccccc3CCN1C2 (centres undefined)	> 200 µM	39.8 µM	–
COC(=O)/C=C(/C(=O)OC)C1(C)c2cc(C(=O)OC)c(C(=O)OC)c(N)c2C(=N)N1c1ccccc1 (centres undefined)	–	–	inactive
CC(C)c1ccc2nc3ccc(C(=O)NCCN4CCN(c5ccccc5)CC4)cn3c(=O)c2c1	> 200 µM	14.8 µM	–
O=C(c1ccccc1)C1CSS(=O)(=O)C1c1ccccc1 (centres undefined)	27.5 µM	91.2 µM	–
CCOC(=O)C(=C(SC)SC)c1nn2c(=O)cc(C)nc2s1	> 200 µM	17.8 µM	–
NCCN.O=C([O-])C(=O)[O-].O=C([O-])C(=O)[O-].[Co+3].[K+]	> 372 µM	269 µM	–
N#Cc1ccc(CSC2=C(c3ccc(Cl)cc3)S/C(=C3\SC(SCc4ccc(C#N)cc4)=C(c4ccc(Cl)cc4)S3)S2)cc1	> 100 µM	> 100 µM	–
N#Cc1cccc(C2ON=C(c3ccc([N+](=O)[O-])cc3)N2C23CC4CC(CC(C4)C2)C3)c1 (centres undefined)	> 200 µM	> 200 µM	–
c1ccc2c(c1)nnn1c3cnccc3nc21	> 58.9 µM	6.76 µM	–
O=c1[nH]c(-c2ccccc2)nc2cc(Cl)ccc12	–	–	inactive
N=c1c2c(C(N)=O)cn(C3OC(CO)C(O)C3O)c2ncn1O (centres undefined)	> 0.2 µM	0.191 µM	–
O=c1sc2c(s1)SSSSS2	> 50.1 µM	15.8 µM	–
O=[N+]([O-])/C(C(Cl)=C(Cl)Cl)=C1\NCCO1	> 200 µM	115 µM	–
COC(=O)NC1(NC(=O)OC)NC(=O)c2ccccc2N1	> 200 µM	> 200 µM	–
C/C(=N\NC(=O)c1ccncc1)c1ccccc1F	> 977 µM	617 µM	–

SMILES	EC50	IC50	outcome
COC(C/C(=C/CO[Si](C(C)C)(C(C)C)C(C)C)C(=O)Nc1ccccc1I)OC	> 200 µM	40.7 µM	–
O=C(NCCc1c[nH]c2ccccc12)C(F)(F)C(F)(F)F	> 200 µM	38 µM	–
CCOC(=O)NC(=O)c1cn(CCN2CCNCC2)c(=O)[nH]c1=O	–	–	inactive
CC1(C)C2CC(O)C1CCC2=O (centres undefined)	> 200 µM	> 200 µM	–
C=CP(=S)(c1ccccc1)c1ccccc1	> 56.2 µM	> 56.2 µM	–
CC(C)(O)c1cc2nc3ccccc3nc2n1CCO	> 200 µM	> 200 µM	–
CCOC(=O)C(=[N+]=[N-])C(=O)C[N+]12CCN(CC1)CC2	> 200 µM	> 200 µM	–
CCc1c(Cc2ccccc2)n(COCCSc2ccccc2)c(=O)[nH]c1=O	3.24 µM	26.9 µM	–
C=C1CN(S(=O)(=O)c2ccc(C)cc2)CCCN(C(C)CC)CCCN(S(=O)(=O)c2ccc(C)cc2)C1 (centres undefined)	> 200 µM	> 200 µM	–
Cc1cc(S(=O)(=O)Nc2n[nH]c(Nc3ccccc3)n2)c(S)cc1Cl	170 µM	275 µM	–
C=C1C2CCC3C(CCC4C5(C)CCCC43C3OCCN3C5)(C2)C1OC(C)=O (centres undefined)	–	–	inactive
Cc1cccc(N2CCN(S(=O)(=O)c3ccc(Cl)cc3)C2=N)c1C	> 200 µM	> 200 µM	–
Nc1c(-c2cccc3ccccc23)c2ccc([N+](=O)[O-])cc2c(=O)n1-c1nc2ccccc2s1	> 50.1 µM	0.676 µM	–
CCCCC1CC(c2cccc([N+](=O)[O-])c2)=NO1 (centres undefined)	> 15.1 µM	> 15.1 µM	–
N#CC(C#N)C(c1ccccc1)c1ccccc1	–	–	inactive
COc1cc2c(cc1O)C(CSC)Cc1cc3c(cc1N(C)CC2)OCO3 (centres undefined)	> 148 µM	12 µM	–
CCOC(=O)c1c[nH]c(C(=O)C=[N+]=[N-])c1C1CCN(CC)C1=S (centres undefined)	> 200 µM	138 µM	–
O=C1C(c2ccccc2)=[N+]([O-])c2cc([N+](=O)[O-])c(/C(Cl)=C/c3ccccc3)cc21	–	–	inactive
CC(=O)O[C@H]1CCC2[C@@H]3CCC4=C(O)c5nocc5C[C@]4(C)C3CC[C@@]21C (some centres undefined)	> 70.8 µM	–	–
N#CSCC1COc2ccccc2O1 (centres undefined)	> 200 µM	1.23 µM	–

From PubChem BioAssay AID179 (DTP/NCI, 2004)
